Source: patent US20120264691 (published 2012)
Entries after “also recorded” stand apart in the source; their conditions may differ. Values belong to the substance of their own block, whether it stands above or below them.

Columns and labels:
[1] = purified water, pH 4.7, or adjusted to pH 1.8, 3.9 (hydrochloric acid) and 7.8 (sodium hydroxide); conditions: 25±2° C., up to 3 day
[2] = 0.1M HCl aqueous solution (pH: 1.1); conditions: 25±2° C., up to 72 hours
[3] = Mcllvain buffer solutions (pH: 2.0, 3.0, 4.0, 5.0, 6.0, 7.0, 8.0); conditions: 25±2° C., up to 72 hours
[4] = Britton-Robinson buffer solution (pH 7.0); conditions: 40±1° C.
[5] = Britton-Robinson buffer solutions having pH of 2.1, 3.1, 4.0, 5.0, 6.0, 7.0 and 7.9; conditions: 40±1° C., up to 1 day

fragment found [1]: Dha compound, 1 day
Substance: GSS(n-octanoyl)FLSPEHQRVQQRKESKKPPAKLQPR
cleaved bond [1]: hydrolytic cleavage of octanoyl group, 1 day | cleaved bond [2]: hydrolytic cleavage of octanoyl group, 8 hr. | cleaved bond [3]: hydrolytic cleavage of octanoyl group, 8 hr. | cleaved bond ([4]; up to 14 days): hydrolytic cleavage of octanoyl group of human ghrelin, major, 4 days; also recorded: β-elimination of octanoyl group of human ghrelin, major, 4 days | fragment found ([4]; up to 14 days): degradation product D = desacyl human ghrelin (3-28), 14 days; also recorded: degradation product E = [N^α—CO—C(═CH2)—OH]human ghrelin(4-28), 14 days | cleaved bond [5]: hydrolytic cleavage of octanoyl group, 1 day

Substance: [3-Dehydroalanine]human ghrelin
fragment found ([4]; up to 3 days): [N^α—CO—C(═CH2)—OH]human ghrelin(4-28) (2nd degradation product of Dha compound), 3 days

Substance: desacylated human ghrelin
fragment found ([4]; up to 14 days): desacyl human ghrelin (3-28), major, 14 days
